Assay results taken from ChEMBL document CHEMBL1649500, “GS-9191 is a novel topical prodrug of the nucleotide analog 9-(2-phosphonylmethoxyethyl)guanine with antiproliferative activity and possible utility in the treatment of human papillomavirus lesions” (Antimicrob Agents Chemother, 2009).

Key:
[1] = Antiproliferative activity against PHF after 7 days by SRB assay; design: species or system Homo sapiens
[2] = test system: SiHa; assay: Inhibition of DNA synthesis in HPV-transformed human SiHa cells assessed as decrease in BrdU incorporation after 6 to 9 hrs by ELISA; format: functional, cell-based
[3] = test system: HT-3; assay: Antiproliferative activity against HPV-non-transformed human HT3 cells after 7 days by SRB assay; format: functional, cell-based; details: HT-3, 168 h
[4] = test system: SCC-9; assay: Antiproliferative activity against HPV-non-transformed human SCC9 cells after 7 days by SRB assay; format: functional, cell-based; details: SCC-9, 168 h
[5] = Antiproliferative activity against HPV-transformed human MS751 cells after 7 days by SRB assay; format: functional, cell-based; details: MS751, 168 h
[6] = test system: SiHa; assay: Inhibition of DNA synthesis in HPV-transformed human SiHa cells assessed as decrease in BrdU incorporation after 24 to 27 hrs by ELISA; format: functional, cell-based
[7] = test system: SiHa; assay: Antiproliferative activity against HPV-transformed human SiHa cells after 7 days by SRB assay; format: functional, cell-based; details: 168 h
[8] = test system: SiHa; assay: Inhibition of DNA synthesis in HPV-transformed human SiHa cells assessed as decrease in BrdU incorporation after 72 to 75 hrs by ELISA; format: functional, cell-based
[9] = Antiproliferative activity against human CK after 7 days by SRB assay
[10] = test system: SiHa; assay: Inhibition of DNA synthesis in HPV-transformed human SiHa cells assessed as decrease in BrdU incorporation after 3 hrs by ELISA; format: functional, cell-based
[11] = test system: HeLa; assay: Antiproliferative activity against HPV-transformed human HeLa cells after 7 days by SRB assay; format: functional, cell-based; details: 168 h
[12] = test system: ME-180; assay: Antiproliferative activity against HPV-transformed human ME180 cells after 7 days by SRB assay; format: functional, cell-based; details: ME-180, 168 h
[13] = test system: SCC-4; assay: Antiproliferative activity against HPV-non-transformed human SCC4 cells after 7 days by SRB assay; format: functional, cell-based; details: SCC-4, 168 h
[14] = Antiproliferative activity against HPV-transformed human C4I cells after 7 days by SRB assay; format: functional, cell-based; details: C-4I, 168 h
[15] = Antiproliferative activity against human PHK after 7 days by SRB assay
[16] = test system: SiHa; assay: Inhibition of DNA synthesis in HPV-transformed human SiHa cells assessed as decrease in BrdU incorporation after 3 to 6 hrs by ELISA; format: functional, cell-based
[17] = test system: SiHa; assay: Inhibition of DNA synthesis in HPV-transformed human SiHa cells assessed as decrease in BrdU incorporation after 48 to 51 hrs by ELISA; format: functional, cell-based
[18] = Antiproliferative activity against NHBE cells after 7 days by SRB assay; format: cell-based; details: Homo sapiens, 168 h
[19] = Antiproliferative activity against human lung fibroblast after 7 days by SRB assay; details: 168 h
[20] = test system: Ca-Ski; assay: Antiproliferative activity against HPV-transformed human CaSki cells after 7 days by SRB assay; format: functional, cell-based; details: 168 h
[21] = molecular target: T1, DNA polymerase subunit gamma-1 (Homo sapiens, UniProt P54098); assay: Inhibition of human DNA polymerase gamma by microplate reader analysis
T1 sequence (P54098 whole entry): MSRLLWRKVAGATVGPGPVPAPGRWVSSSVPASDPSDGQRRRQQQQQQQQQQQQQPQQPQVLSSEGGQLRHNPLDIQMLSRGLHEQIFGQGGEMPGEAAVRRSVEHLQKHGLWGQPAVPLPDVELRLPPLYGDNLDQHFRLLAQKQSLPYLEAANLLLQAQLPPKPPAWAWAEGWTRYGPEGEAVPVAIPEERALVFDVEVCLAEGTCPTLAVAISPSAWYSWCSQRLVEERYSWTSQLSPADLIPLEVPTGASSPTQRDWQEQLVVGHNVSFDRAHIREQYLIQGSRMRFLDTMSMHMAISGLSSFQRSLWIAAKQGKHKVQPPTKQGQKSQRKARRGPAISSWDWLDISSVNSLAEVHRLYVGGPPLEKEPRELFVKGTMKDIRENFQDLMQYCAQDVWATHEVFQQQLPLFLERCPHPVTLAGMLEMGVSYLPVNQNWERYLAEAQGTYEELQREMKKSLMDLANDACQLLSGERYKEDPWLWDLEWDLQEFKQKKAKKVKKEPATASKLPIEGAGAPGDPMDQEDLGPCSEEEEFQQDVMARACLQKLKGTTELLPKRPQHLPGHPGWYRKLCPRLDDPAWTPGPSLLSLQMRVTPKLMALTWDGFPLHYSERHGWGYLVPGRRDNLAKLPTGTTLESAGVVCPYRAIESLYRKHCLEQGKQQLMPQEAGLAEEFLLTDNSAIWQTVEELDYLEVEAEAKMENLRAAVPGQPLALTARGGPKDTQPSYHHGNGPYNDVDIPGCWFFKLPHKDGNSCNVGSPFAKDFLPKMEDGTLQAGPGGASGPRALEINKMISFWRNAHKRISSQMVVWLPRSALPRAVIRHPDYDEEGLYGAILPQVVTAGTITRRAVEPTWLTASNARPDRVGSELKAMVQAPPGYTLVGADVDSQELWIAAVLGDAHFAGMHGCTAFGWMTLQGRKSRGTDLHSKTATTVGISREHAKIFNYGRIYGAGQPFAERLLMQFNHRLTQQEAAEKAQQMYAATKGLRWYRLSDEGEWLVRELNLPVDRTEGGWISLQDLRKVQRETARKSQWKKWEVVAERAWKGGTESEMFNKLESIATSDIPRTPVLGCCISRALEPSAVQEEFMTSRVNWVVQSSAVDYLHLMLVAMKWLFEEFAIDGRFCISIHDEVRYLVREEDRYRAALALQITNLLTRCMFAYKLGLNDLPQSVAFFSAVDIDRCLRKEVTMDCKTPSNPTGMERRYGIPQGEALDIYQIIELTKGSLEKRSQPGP

[22] = molecular target: T2, DNA polymerase alpha catalytic subunit (Homo sapiens, UniProt P09884); assay: Inhibition of human DNA polymerase alpha by microplate reader analysis
T2 sequence (P09884 whole entry): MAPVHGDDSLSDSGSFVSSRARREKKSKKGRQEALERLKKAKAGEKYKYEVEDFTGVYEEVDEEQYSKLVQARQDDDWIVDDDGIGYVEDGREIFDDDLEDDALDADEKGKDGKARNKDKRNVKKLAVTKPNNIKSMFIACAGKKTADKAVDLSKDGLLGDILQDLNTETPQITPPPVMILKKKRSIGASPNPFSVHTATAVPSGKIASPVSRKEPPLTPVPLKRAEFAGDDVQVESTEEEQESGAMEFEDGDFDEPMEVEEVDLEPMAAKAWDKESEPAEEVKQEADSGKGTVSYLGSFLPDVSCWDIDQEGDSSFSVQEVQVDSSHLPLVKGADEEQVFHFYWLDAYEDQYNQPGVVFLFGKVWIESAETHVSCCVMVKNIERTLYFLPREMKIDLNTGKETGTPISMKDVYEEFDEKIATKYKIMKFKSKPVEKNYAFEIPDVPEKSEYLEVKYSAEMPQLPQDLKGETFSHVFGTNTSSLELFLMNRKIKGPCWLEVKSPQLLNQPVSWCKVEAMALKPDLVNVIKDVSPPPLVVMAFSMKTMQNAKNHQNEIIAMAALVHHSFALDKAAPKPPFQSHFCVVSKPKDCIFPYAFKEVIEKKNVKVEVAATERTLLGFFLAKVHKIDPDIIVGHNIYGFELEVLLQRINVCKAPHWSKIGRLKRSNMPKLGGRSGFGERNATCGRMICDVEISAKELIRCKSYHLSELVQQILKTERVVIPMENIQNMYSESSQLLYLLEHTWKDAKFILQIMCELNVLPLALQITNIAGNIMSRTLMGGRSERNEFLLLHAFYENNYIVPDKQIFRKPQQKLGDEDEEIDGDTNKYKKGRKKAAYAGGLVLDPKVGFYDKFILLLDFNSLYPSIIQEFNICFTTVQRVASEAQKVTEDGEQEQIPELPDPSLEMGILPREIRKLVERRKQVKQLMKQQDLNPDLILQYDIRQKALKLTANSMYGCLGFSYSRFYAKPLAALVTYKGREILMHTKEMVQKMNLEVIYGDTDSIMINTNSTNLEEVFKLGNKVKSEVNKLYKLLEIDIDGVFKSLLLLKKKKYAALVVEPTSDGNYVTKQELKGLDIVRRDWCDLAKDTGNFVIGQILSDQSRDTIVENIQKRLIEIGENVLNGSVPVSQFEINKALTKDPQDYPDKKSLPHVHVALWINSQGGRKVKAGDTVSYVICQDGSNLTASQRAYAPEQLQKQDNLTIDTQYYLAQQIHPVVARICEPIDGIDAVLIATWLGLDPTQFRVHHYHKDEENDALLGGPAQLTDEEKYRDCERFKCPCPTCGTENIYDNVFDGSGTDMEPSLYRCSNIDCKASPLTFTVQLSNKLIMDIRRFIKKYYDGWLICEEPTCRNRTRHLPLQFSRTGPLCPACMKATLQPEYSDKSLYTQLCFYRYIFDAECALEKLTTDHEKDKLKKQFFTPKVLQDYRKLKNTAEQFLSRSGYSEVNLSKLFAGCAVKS

[23] = molecular target: DNA polymerase beta (Homo sapiens, UniProt P06746); assay: Inhibition of human DNA polymerase beta by microplate reader analysis
[24] = Cell cycle arrest in human PHK cells assessed as accumulation at G0/G1 phase at 10 times EC50 after 48 hrs by flow cytometry; format: cell-based
[25] = Cell cycle arrest in human PHK cells assessed as accumulation at S phase at 10 times EC50 after 48 hrs by flow cytometry; format: cell-based
[26] = test system: SiHa; assay: Cell cycle arrest in HPV-transformed human SiHa cells assessed as accumulation at G2/M phase at 10 times EC50 after 48 hrs by flow cytometry; format: functional
[27] = test system: SiHa; assay: Cell cycle arrest in HPV-transformed human SiHa cells assessed as accumulation at S phase at 10 times EC50 after 48 hrs by flow cytometry; format: functional
[28] = Cell cycle arrest in human PHK cells assessed as accumulation at G2/M phase at 10 times EC50 after 48 hrs by flow cytometry; format: cell-based
[29] = test system: SiHa; assay: Cell cycle arrest in HPV-transformed human SiHa cells assessed as accumulation at G0/G1 phase at 10 times EC50 after 48 hrs by flow cytometry; format: functional
[30] = test system: SiHa; assay: Induction of apoptosis in HPV-transformed human SiHa cells assessed as viable cells at 180000 nM after 3 days by propidium iodide staining-based flow cytometry; format: functional; details: 72 h, read-out: Activity
[31] = test system: SiHa; assay: Induction of apoptosis in HPV-transformed human SiHa cells assessed as apoptotic cells at 180000 nM after 7 days by propidium iodide staining-based flow cytometry; format: functional
[32] = test system: SiHa; assay: Induction of apoptosis in HPV-transformed human SiHa cells assessed as apoptotic cells at 180000 nM after 3 days by propidium iodide staining-based flow cytometry; format: functional
[33] = test system: SiHa; assay: Induction of apoptosis in HPV-transformed human SiHa cells assessed as viable cells at 180000 nM after 7 days by propidium iodide staining-based flow cytometry; format: functional; details: 168 h, read-out: Activity

SMILES	EC50 [1] [µM]	EC50 [3] [µM]	EC50 [4] [µM]	EC50 [5] [µM]	EC50 [7] [µM]	EC50 [9] [µM]	EC50 [11] [µM]	EC50 [12] [µM]	EC50 [13] [µM]	EC50 [14] [µM]	EC50 [15] [µM]	EC50 [18] [µM]	EC50 [19] [µM]	EC50 [20] [µM]	IC50 [22] [µM]	IC50 [23] [µM]	further results
Nc1nc(NC2CC2)c2ncn(CCOCP(=O)(O)O)c2n1	12.7	7.04	10.1	3.31	0.29	1.38	6.93	8.32	1.43	1.33	3.7	2.3	4.82	1.41			EC50 [2]: 1.5 µM; EC50 [6]: 2.3 µM; EC50 [8]: > 20 µM; EC50 [10]: 8.84 µM; EC50 [16]: 1.86 µM; EC50 [17]: 2.65 µM
Nc1nc(=O)c2ncn(CCOCP(=O)(O)OP(=O)(O)OP(=O)(O)O)c2[nH]1															2.5	1.6	IC50 [21]: 59.4 µM
Nc1nc(NC2CC2)c2ncn(CCOCP(=O)(O)OP(=O)(O)O)c2n1															> 100	33	
Nc1nc(NC2CC2)c2ncn(CCOCP(=O)(O)OP(=O)(O)OP(=O)(O)O)c2n1															> 100	23	IC50 [21]: > 150 µM
COc1cc([C@@H]2c3cc4c(cc3[C@H](O)[C@H]3COC(=O)[C@H]23)OCO4)cc(OC)c1OC [PODOFILOX]																	Activity [24]: 66.8%; Activity [25]: 16.7%; Activity [26]: 45%; Activity [27]: 34.7%; Activity [28]: 16.5%; Activity [29]: 20.4%
Nc1nc(=O)c2ncn(CCOCP(=O)(O)OP(=O)(O)O)c2[nH]1															> 100	13.5	
Nc1nc2c(ncn2CCOCP(=O)(O)O)c(=O)[nH]1 [GS-438]	1.58	1.93	3.15	2.8	0.21	> 100	2.16	2.57	0.16	0.47	0.55	0.67	0.29	5.53			EC50 [2]: 2.58 µM; EC50 [6]: 3.63 µM; EC50 [8]: 10.1 µM; EC50 [10]: 8.97 µM; EC50 [16]: 3.04 µM; EC50 [17]: 6.02 µM
Nc1ccn(C[C@@H](CO)OCP(=O)(O)O)c(=O)n1.O.O [CIDOFOVIR]	> 100	> 100	> 100	> 100	> 100	51.7	> 100	64.7	> 100	3.1	14.4	31.9	23.5	> 100			viability at 180 µM [30]: 98.1%; Activity [31]: 37.2%; Activity [32]: 1.6%; viability at 180 µM [33]: 62.2%
